# Measured values published in US12234257B2, “Triterpene saponin derivative and use thereof” (KOREA INSTITUTE OF SCIENCE AND TECHNOLOGY, priority 2020, dated 2025).
# Tested on: GFP-RFP-LC3-II puncta in SH-SY5Y cells
# Test: Tandem fluorescent protein quenching assay (RFP-GFP-LC3)
# Format: cell-based, human
# Conditions: transfected SH-SY5Y cells, AKNS-2 10 μM alone vs control cells
# Procedure: SH-SY5Y cells were cultured in a 24-well plate at a density of 8×10^4 cells/well on a glass cover slip. Transfection was performed in accordance with guidelines of the autophagy tandem RFP-GFP-LC3B kit. After culturing the cells for 24 hours, the cells were treated with an LC3B reagent. After the transfected cells were incubated for 24 hours, 50 nM Wart or 100 nM Baf was administered thereto, and then AKNS-2 (10 μM) was added thereto. The cells were immobilized with 4% paraformaldehyde and permeabilized with 0.1% Triton X100. Nuclei thereof were stained with 4,6-diamidino-2-phenylindole (DAPI, 25 μg/mL). Fluorescent signals were detected using a confocal microscope (Leica, Solms, Germany).
smiles,measurement,value
"C[C@@H]1O[C@@H](O[C@@H]2[C@@H](O)[C@H](O[C@@H]3[C@@H](O[C@@H]4OC[C@@H](O)[C@H](O)[C@H]4O)[C@@H](O)[C@H](O[C@H]4[C@H](OC(=O)[C@]56CCC(C)(C)C[C@H]5C5=CC[C@@H]7[C@@]8(C)C[C@H](O)[C@H](O[C@@H]9O[C@H](CO)[C@@H](O)[C@H](O[C@@H]%10OC[C@@H](O)[C@H](O)[C@H]%10O)[C@H]9O)[C@@](C)(CO)[C@@H]8CC[C@@]7(C)[C@]5(C)C[C@H]6O)OC[C@H](O)[C@@H]4O)O[C@H]3C)OC[C@H]2O)[C@H](O)[C@H](O)[C@H]1O [Compound 1, 3-O-β-D-xylopyranosyl-(1→3)-β-D-glucopyranosylpolygalacic acid 28-O-α-L-rhamnopyranosyl-(1→3)-β-D-xylopyranosyl-(1→4)-[β-D-xylopyranosyl-(1→3)]-α-L-rhamnopyranosyl-(1→2)-α-L-arabinopyranosyl ester]",accumulation of GFP-RFP-LC3-II puncta,more cytoplasmic puncta stained with green and red fluorescence were observed compared to in the control cells
